Among the data in patent publication US7166581B1, “Treatment of chemotherapeutic agent and antiviral agent toxicity with acylated pyrimidine nucleosides” (Wellstat Therapeutics Corporation, priority 1987, dated 2007) are concentration values, retold here.

The nature of the data set: in vivo. Also on record: species or system mice. Particulars: mouse, ip, 300 mg/kg. As to the method:
Plasma uridine levels were determined in mice at various times (15 minutes, 30 minutes, 1 hour, and 2 hours) after administration of the acyl derivatives of uridine utilized in Example 3 for attenuation of toxicity caused by 5-FU. Groups of mice (n=3 per compound per time point) received intraperitoneal injections of uridine (300 mg/kg), triacetyluridine (TAU; 455 mg/kg/treatment), benzoyluridine (BU; 428 mg/kg/treatment), ethoxycarbonyluridine (ECU; 389 mg/kg/treatment), octanoyluridine (OU; 455 mg/kg/treatment), and valeryluridine (VU; 403 mg/kg/treatment). The doses of the acyl derivatives of uridine are the molar equivalent of 300 mg/kg uridine. At the appropriate time points, blood samples (200 μl) were taken from mice via the retro-orbital sinus and immediately centrifuged. 75 μl of the resulting plasma was deproteinized with 2 volumes of methanol followed by centrifugation. The supernatant was lyophilized and reconstituted with 50 mM potassium phosphate buffer, pH 6.0, and analyzed for uridine content by HPLC on a reverse phase (C18) column. Uridine was separated from other plasma components in 50 mM potassium phosphate buffer, pH 6.0, with a methanol gradient (2% to 35% over 15 minutes). Uridine was detected and quantified by UV absorbance at 260 nm.

`O=c1ccn([C@@H]2O[C@H](CO)[C@@H](O)[C@H]2O)c(=O)[nH]1` [Urd, uridine] displayed a concentration at 15 min of 911 µM, a concentration at 30 min of 415 µM, a concentration at 1 h of 185 µM and a concentration at 2 h of 5.3 µM.
